For 27 compounds, EC50 results are on record in patent US8741906B2 (priority 2011, dated 2014).

Read-outs that look alike come from different tables or passages of the source.

In one assay the target is T1, human CB2 receptors (Homo sapiens, UniProt P34972).
T1 construct: expressed in transfected cells; host or cells: CHO cells
The assay is described as follows: functional cAMP assay, human CB2. Type of assay: cell-based. In short, it runs like this:
(§1)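 CHO cells expressing human CB1 or CB2 were preincubated 30 min at 30 °C in Krebs Ringer bicarbonate with 1 mM IBMX, then exposed to compound 30 min at 30 °C. cAMP quantified by TR-FRET competition (Alexa700 antibody/ruthenium-cAMP) against a 10 μM–0.13 nM standard curve; EC50 derived.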
A general note: Changes in cAMP serve as a functional read-out for many G protein-coupled receptors.

In the next assay the target is T2, human CB1 receptors (Homo sapiens, UniProt P21554).
T2 construct: expressed in transfected cells; host or cells: CHO cells
T2 sequence (P21554 whole entry): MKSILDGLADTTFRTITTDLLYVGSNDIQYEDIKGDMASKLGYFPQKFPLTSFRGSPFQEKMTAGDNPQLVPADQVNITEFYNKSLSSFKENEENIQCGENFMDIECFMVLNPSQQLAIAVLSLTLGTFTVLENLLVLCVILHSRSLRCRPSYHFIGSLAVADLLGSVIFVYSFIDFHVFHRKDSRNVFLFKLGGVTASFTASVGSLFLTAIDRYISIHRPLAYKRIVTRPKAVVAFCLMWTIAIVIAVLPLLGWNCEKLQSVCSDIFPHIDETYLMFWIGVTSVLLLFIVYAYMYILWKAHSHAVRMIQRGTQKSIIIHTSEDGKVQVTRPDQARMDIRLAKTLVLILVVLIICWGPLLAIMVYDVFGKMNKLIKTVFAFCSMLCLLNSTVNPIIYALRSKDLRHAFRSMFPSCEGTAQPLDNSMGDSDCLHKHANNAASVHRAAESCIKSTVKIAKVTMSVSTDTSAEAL
The assay is described as follows: functional cAMP assay, human CB1. Type of assay: cell-based. In short, it runs like this:
as §1

[1] abbreviates: CHO cells expressing human CB2, cAMP, read-out: human CB2 EC50.
The mark [2] stands for this setting: CHO cells expressing human CB1, cAMP, read-out: human CB1 EC50.

T1 sequence (P34972 whole entry): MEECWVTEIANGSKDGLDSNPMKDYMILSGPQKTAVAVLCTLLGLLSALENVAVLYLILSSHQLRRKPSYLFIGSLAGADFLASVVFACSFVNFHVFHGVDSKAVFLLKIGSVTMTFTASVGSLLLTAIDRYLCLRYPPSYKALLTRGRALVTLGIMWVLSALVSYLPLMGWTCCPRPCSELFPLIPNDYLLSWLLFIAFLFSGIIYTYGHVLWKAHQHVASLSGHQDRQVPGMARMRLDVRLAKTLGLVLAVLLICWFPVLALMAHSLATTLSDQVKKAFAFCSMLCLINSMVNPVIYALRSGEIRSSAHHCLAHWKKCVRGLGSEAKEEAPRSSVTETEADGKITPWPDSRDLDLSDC

Usually EC50 stands for the concentration at which the effect is half-maximal. As for `CC(C)(C)c1nc(N2CCC(F)(F)C2)c2nnn(CC(=O)c3ccccn3)c2n1` [Example 127, 2-[5-tert-Butyl-7-(3,3-difluoro-pyrrolidin-1-yl)-[1,2,3]triazolo[4,5-d]pyrimidin-3-yl]-1-pyridin-2-yl-ethanone], the EC50 at human CB2 receptors (setting [1]) was 0.4 nM; on human CB1 receptors (setting [2]) it was > 10000 nM.

`Cc1nnc(Cn2nnc3c(N4CCC(F)(F)C4)nc(C(C)(C)C)nc32)o1` [Example 128, 5-tert-Butyl-7-(3,3-difluoro-pyrrolidin-1-yl)-3-(5-methyl-[1,3,4]oxadiazol-2-ylmethyl)-3H-[1,2,3]triazolo[4,5-d]pyrimidine]: the EC50 is 0.4 nM on human CB2 receptors (setting [1]) and > 10000 nM on human CB1 receptors (setting [2]).

For the compound `CC(C)(C)c1nc(N2CCC(F)(F)C2)c2nnn(Cc3ccncc3Cl)c2n1` [Example 129, 5-tert-Butyl-3-(3-chloro-pyridin-4-ylmethyl)-7-(3,3-difluoro-pyrrolidin-1-yl)-3H-[1,2,3]triazolo[4,5-d]pyrimidine], the EC50 at human CB2 receptors (setting [1]) was found to be 0.1 nM; on human CB1 receptors (setting [2]) it was 670 nM.

`Cc1nc(Cn2nnc3c(N4CCC(F)(F)C4)nc(C(C)(C)C)nc32)no1` [Example 130, 5-tert-Butyl-7-(3,3-difluoro-pyrrolidin-1-yl)-3-(5-methyl-[1,2,4]oxadiazol-3-ylmethyl)-3H-[1,2,3]triazolo[4,5-d]pyrimidine]: the EC50 was determined as 0.5 nM at human CB2 receptors (setting [1]) and 564 nM on human CB1 receptors (setting [2]).

For the compound `Cn1nnnc1Cn1nnc2c(N3CCC(F)(F)C3)nc(C(C)(C)C)nc21` [Example 131, 5-tert-Butyl-7-(3,3-difluoro-pyrrolidin-1-yl)-3-(1-methyl-1H-tetrazol-5-ylmethyl)-3H-[1,2,3]triazolo[4,5-d]pyrimidine], the EC50 at human CB2 receptors (setting [1]) was 0.1 nM; at human CB1 receptors (setting [2]) it was > 10000 nM.

As for `Cn1ncnc1Cn1nnc2c(N3CCC(F)(F)C3)nc(C(C)(C)C)nc21` [Example 132, 5-tert-Butyl-7-(3,3-difluoro-pyrrolidin-1-yl)-3-(2-methyl-2H-[1,2,4]triazol-3-ylmethyl)-3H-[1,2,3]triazolo[4,5-d]pyrimidine], the concentration for a half-maximal effect (EC50) at human CB2 receptors (setting [1]) is 0.7 nM; on human CB1 receptors (setting [2]) it was > 10000 nM.

With `Cn1c(Cn2nnc3c(N4CCC(F)(F)C4)nc(C(C)(C)C)nc32)nnc1S(C)(=O)=O` [Example 133, 5-tert-Butyl-7-(3,3-difluoro-pyrrolidin-1-yl)-3-(5-methanesulfonyl-4-methyl-4H-[1,2,4]triazol-3-ylmethyl)-3H-[1,2,3]triazolo[4,5-d]pyrimidine], the concentration giving a half-maximal response (EC50) at human CB2 receptors (setting [1]) is 4.4 nM; on human CB1 receptors (setting [2]), > 10000 nM.

With `CN(C)c1c(Cl)cncc1Cn1nnc2c(N3CCC(F)(F)C3)nc(C(C)(C)C)nc21` [Example 134, {3-[5-tert-Butyl-7-(3,3-difluoro-pyrrolidin-1-yl)-[1,2,3]triazolo[4,5-d]pyrimidin-3-ylmethyl]-5-chloro-pyridin-4-yl}-dimethyl-amine], the results for the EC50 at human CB2 receptors (setting [1]) and on human CB1 receptors (setting [2]) were 0.3 nM and 234 nM, respectively.

For the compound `CC(C)(C)c1nc(N2CCC(F)(F)C2)c2nnn(Cc3c[nH]nc3C(F)(F)F)c2n1` [Example 135, 5-tert-Butyl-7-(3,3-difluoro-pyrrolidin-1-yl)-3-(3-trifluoromethyl-1H-pyrazol-4-ylmethyl)-3H-[1,2,3]triazolo[4,5-d]pyrimidine], the 50% effective concentration (EC50) at human CB2 receptors (setting [1]) was 0.4 nM; on human CB1 receptors (setting [2]) it was 1400 nM.

For `Cc1nonc1Cn1nnc2c(N3CC[C@H](O)C3)nc(C(C)(C)C)nc21` [Example 136, (S)-1-[5-tert-Butyl-3-(4-methyl-furazan-3-ylmethyl)-3H-[1,2,3]triazolo[4,5-d]pyrimidin-7-yl]-pyrrolidin-3-ol], the half-maximal effective concentration (EC50) on human CB2 receptors (setting [1]) was 0.2 nM; at human CB1 receptors (setting [2]), > 10000 nM.

`Cc1noc(Cn2nnc3c(N4CC[C@H](O)C4)nc(C(C)(C)C)nc32)n1` [Example 137, (S)-1-[5-tert-Butyl-3-(3-methyl-[1,2,4]oxadiazol-5-ylmethyl)-3H-[1,2,3]triazolo[4,5-d]pyrimidin-7-yl]-pyrrolidin-3-ol]: the values for the EC50 on human CB2 receptors (setting [1]) and on human CB1 receptors (setting [2]) were 18.2 nM and > 10000 nM, respectively.

`CC(C)(C)c1nc(N2CC[C@H](O)C2)c2nnn(Cc3ncccc3Cl)c2n1` [Example 138, (S)-1-[5-tert-Butyl-3-(3-chloro-pyridin-2-ylmethyl)-3H-[1,2,3]triazolo[4,5-d]pyrimidin-7-yl]-pyrrolidin-3-ol]: the 50% effective concentration (EC50) was 0.4 nM at human CB2 receptors (setting [1]) and > 10000 nM on human CB1 receptors (setting [2]).

As to `CC(C)(C)c1nc(N2CC[C@H](O)C2)c2nnn(Cc3nc(Cl)ccc3Cl)c2n1` [Example 139, (S)-1-[5-tert-Butyl-3-(3,6-dichloro-pyridin-2-ylmethyl)-3H-[1,2,3]triazolo[4,5-d]pyrimidin-7-yl]-pyrrolidin-3-ol], the concentration for a half-maximal effect (EC50) on human CB2 receptors (setting [1]) was 0.3 nM; at human CB1 receptors (setting [2]), > 10000 nM.

On to `CC(C)(C)c1nc(N2CC[C@H](O)C2)c2nnn(Cc3cccnc3Cl)c2n1` [Example 140, (S)-1-[5-tert-Butyl-3-(2-chloro-pyridin-3-ylmethyl)-3H-[1,2,3]triazolo[4,5-d]pyrimidin-7-yl]-pyrrolidin-3-ol], for which the values for the EC50 at human CB2 receptors (setting [1]) and on human CB1 receptors (setting [2]) were 0.1 nM and > 10000 nM, respectively.

As to `CC(C)(C)c1nc(N2CC[C@H](O)C2)c2nnn(Cc3cccc(Cl)c3Cl)c2n1` [Example 141, (S)-1-[5-tert-Butyl-3-(2,3-dichloro-benzyl)-3H-[1,2,3]triazolo[4,5-d]pyrimidin-7-yl]-pyrrolidin-3-ol], the values for the 50% effective concentration (EC50) on human CB2 receptors (setting [1]) and at human CB1 receptors (setting [2]) were 0.5 nM and > 10000 nM, respectively.

`CC(C)(C)c1nc(N2CC[C@H](O)C2)c2nnn(Cc3ccccc3C(F)(F)F)c2n1` [Example 142, (S)-1-[5-tert-Butyl-3-(2-trifluoromethyl-benzyl)-3H-[1,2,3]triazolo[4,5-d]pyrimidin-7-yl]-pyrrolidin-3-ol]: the EC50 on human CB2 receptors (setting [1]) is 0.2 nM; on human CB1 receptors (setting [2]), > 10000 nM.

For `CC(C)(C)c1nc(N2CC[C@H](O)C2)c2nnn(Cc3ccccc3S(C)(=O)=O)c2n1` [Example 143, (S)-1-[5-tert-Butyl-3-(2-methanesulfonyl-benzyl)-3H-[1,2,3]triazolo[4,5-d]pyrimidin-7-yl]-pyrrolidin-3-ol], the EC50 on human CB2 receptors (setting [1]) was 0.1 nM; at human CB1 receptors (setting [2]), > 10000 nM.

For `Cc1cc(Cn2nnc3c(N4CCC(F)(F)C4)nc(C(C)(C)C)nc32)n(C)n1` [Example 144, 5-tert-Butyl-7-(3,3-difluoro-pyrrolidin-1-yl)-3-(2,5-dimethyl-2H-pyrazol-3-ylmethyl)-3H-[1,2,3]triazolo[4,5-d]pyrimidine], the EC50 at human CB2 receptors (setting [1]) came to 0.4 nM; at human CB1 receptors (setting [2]) it was 123 nM.

For `Cn1nncc1Cn1nnc2c(N3CCC(F)(F)C3)nc(C(C)(C)C)nc21` [Example 145, 5-tert-Butyl-7-(3,3-difluoro-pyrrolidin-1-yl)-3-(3-methyl-3H-[1,2,3]triazol-4-ylmethyl)-3H-[1,2,3]triazolo[4,5-d]pyrimidine], the values for the half-maximal effective concentration (EC50) on human CB2 receptors (setting [1]) and at human CB1 receptors (setting [2]) were 0.2 nM and 2250 nM, respectively.

Take `Cc1nnc(Cn2nnc3c(N4CCC(F)(F)C4)nc(C(C)(C)C)nc32)n1C` [Example 146, 5-tert-Butyl-7-(3,3-difluoro-pyrrolidin-1-yl)-3-(4,5-dimethyl-4H-[1,2,4]triazol-3-ylmethyl)-3H-[1,2,3]triazolo[4,5-d]pyrimidine]: the values for the EC50 on human CB2 receptors (setting [1]) and at human CB1 receptors (setting [2]) were 0.5 nM and > 10000 nM, respectively.

Take `Cc1c(Cn2nnc3c(N4CCC(F)(F)C4)nc(C(C)(C)C)nc32)ccc[n+]1[O-]` [Example 147, 5-tert-Butyl-7-(3,3-difluoro-pyrrolidin-1-yl)-3-(2-methyl-1-oxy-pyridin-3-ylmethyl)-3H-[1,2,3]triazolo[4,5-d]pyrimidine]: the values for the EC50 at human CB2 receptors (setting [1]) and at human CB1 receptors (setting [2]) were 0.3 nM and 209 nM, respectively.

Regarding `CC(C)(C)c1nc(N2CC[C@H](O)C2)c2nnn(Cc3nccc(Cl)c3Cl)c2n1` [Example 148, (S)-1-[5-tert-Butyl-3-(3,4-dichloro-pyridin-2-ylmethyl)-3H-[1,2,3]triazolo[4,5-d]pyrimidin-7-yl]-pyrrolidin-3-ol], the EC50 at human CB2 receptors (setting [1]) was 0.4 nM; at human CB1 receptors (setting [2]), > 10000 nM.

For `Cc1nc(Cn2nnc3c(N4CC[C@H](O)C4)nc(C(C)(C)C)nc32)no1` [Example 149, (S)-1-[5-tert-Butyl-3-(5-methyl-[1,2,4]oxadiazol-3-ylmethyl)-3H-[1,2,3]triazolo[4,5-d]pyrimidin-7-yl]-pyrrolidin-3-ol], the half-maximal effective concentration (EC50) is 17.4 nM on human CB2 receptors (setting [1]) and > 10000 nM at human CB1 receptors (setting [2]).

Turning to `Cc1nnc(Cn2nnc3c(N4CC[C@H](O)C4)nc(C(C)(C)C)nc32)o1` [Example 150, (S)-1-[5-tert-Butyl-3-(5-methyl-[1,3,4]oxadiazol-2-ylmethyl)-3H-[1,2,3]triazolo[4,5-d]pyrimidin-7-yl]-pyrrolidin-3-ol], the concentration for a half-maximal effect (EC50) at human CB2 receptors (setting [1]) was 36.3 nM; at human CB1 receptors (setting [2]), > 10000 nM.

Regarding `Cn1nnnc1Cn1nnc2c(N3CC[C@H](O)C3)nc(C(C)(C)C)nc21` [Example 151, (S)-1-[5-tert-Butyl-3-(1-methyl-1H-tetrazol-5-ylmethyl)-3H-[1,2,3]triazolo[4,5-d]pyrimidin-7-yl]-pyrrolidin-3-ol], the results for the EC50 on human CB2 receptors and on human CB1 receptors were 1.4 nM and > 10000 nM, respectively.

Turning to `Cn1ncnc1Cn1nnc2c(N3CC[C@H](O)C3)nc(C(C)(C)C)nc21` [Example 152, (S)-1-[5-tert-Butyl-3-(2-methyl-2H-[1,2,4]triazol-3-ylmethyl)-3H-[1,2,3]triazolo[4,5-d]pyrimidin-7-yl]-pyrrolidin-3-ol], the figures for the concentration giving a half-maximal response (EC50) at human CB2 receptors (setting [1]) and on human CB1 receptors (setting [2]) were 10.5 nM and > 10000 nM, respectively.

`Cc1nnc(Cn2nnc3c(N4CC[C@H](O)C4)nc(C(C)(C)C)nc32)n1C` [Example 153, (S)-1-[5-tert-Butyl-3-(4,5-dimethyl-4H-[1,2,4]triazol-3-ylmethyl)-3H-[1,2,3]triazolo[4,5-d]pyrimidin-7-yl]-pyrrolidin-3-ol]: the EC50 on human CB2 receptors (setting [1]) is 11.9 nM; on human CB1 receptors (setting [2]) it was > 10000 nM.
